{"source": "paper PMC9609173", "about": "“Preparation and Evaluation of [^18F]AlF-NOTA-NOC for PET Imaging of Neuroendocrine Tumors: Comparison to [^68Ga]Ga-DOTA/NOTA-NOC” (Molecules, 2022)", "key": {"[1]": {"test": "Determination of LogP (1-octanol/Dulbecco's PBS partition)", "assay_type": "physicochemical", "experimental": "Radiolabeled peptide (5 µL, 3–5 MBq) was added to Dulbecco’s PBS (495 µL) along with 1-Octanol (500 µL) in an Eppendorf tube. The tubes were vortexed for 5 min and centrifuged to separate phases. A volume of 10 µL of each phase was transferred to new Eppendorf tubes. The fractions were counted in an well counter (Atomlab 950) and LogP were calculated [[…]]."}, "AR42J xenograft": {"tested_on": "AR42J xenograft", "assay_type": "in vivo, mice", "experimental": "All animal experiments were planned and performed following the national legislation by the Animal Experiments Inspectorate in Denmark. Male SCID (severe combined immunodeficiency) mice (bred in-house, age 9–12 weeks) had access to water and chow ad libitum. Anesthesia with approximately 2% isoflurane in 100% oxygen was applied and the mice were inoculated subcutaneously in the left shoulder with 1 × 10^6 AR42J cells 12–15 days before the experiment (tumor weight 364 ± 58 mg). For biodistribution, the AR42J xenografted mice were injected in the tail vein with [^68Ga]Ga-NOTA-NOC (50.2 ± 5 pmol, 627 ± 116 kBq, n = 4), [^68Ga]Ga-DOTA-NOC (42.5 ± 6 pmol, 509 ± 24 kBq, n = 3), or [^18F]AlF-NOTA-NOC (47.0 ± 10 pmol, 1017 ± 279 kBq, n = 3 for each time point). After 1 or 3 h, the mice were sacrificed and the organs were collected and weighed. The organ radioactivities were quantified in an Atomlab 950 well spectrometer which was cross calibrated to a high-purity germanium detector. The tissue uptake of injected radioactivity was determined as a percentage of the applied total injected activity per gram, %IA/g.\nGraphPad Prism 6.07 was applied for statistical analysis and data fitting. One-way ANOVA and Bonferroni correction for multiple comparisons were applied for each organ. P values considered statistically significant were * p ≤ 0.05, ** p ≤ 0.01, *** p ≤ 0.001, and **** p ≤ 0.0001. The Student’s two-tailed t-test was applied for exploration statistics within a single organ-to-tumor comparison for one time point. Data are presented as the mean ± SEM."}}, "note": "Where a SMILES comes first, the peptide text is derived from it. Bridges are numbered along the chain shown (N, C = ends). [ ]: non-standard residue; d: D form. The star is where a group is joined. DOTA = O=C(O)CN1CCN(CC(=O)O)CCN(CC(=O)*)CCN(CC(=O)O)CC1; 1Nal = N[C@@H](Cc1cccc2ccccc12)C(=O)O; Thr(ol) = C[C@@H](O)[C@H](N)CO"}
{"compound": "C[C@@H](O)[C@@H]1NC(=O)[C@H](CCCCN)NC(=O)[C@@H](Cc2c[nH]c3ccccc23)NC(=O)[C@H](Cc2cccc3ccccc23)NC(=O)[C@@H](NC(=O)[C@@H](Cc2ccccc2)NC(=O)CN2CCN(CC(=O)O)CCN(CC(=O)O)CCN(CC(=O)O)CC2)CSSC[C@@H](C(=O)N[C@H](CO)[C@@H](C)O)NC1=O", "note": "[[^68Ga]Ga-DOTA-NOC, metal not drawn, reference compound] ({DOTA}-[dF]C[1Nal][dW]KTC[Thr(ol)]; disulfide 2-7 (inferred))", "values": [{"measurement": "partition coefficient, LogP", "setting": "[1]", "value": "−1.42"}, {"measurement": "tumor-to-blood ratio, 1 h p.i.", "setting": "AR42J xenograft; AR42J xenograft mice", "value": 35}, {"measurement": "tumor-to-liver ratio, 1 h p.i.", "setting": "AR42J xenograft; AR42J xenograft mice", "value": 3.7}, {"measurement": "tumor uptake at 1 h p.i.", "setting": "AR42J xenograft; male SCID mice, subcutaneous AR42J xenograft, tail vein injection app. 45 pmol, n = 3-4, mean ± SEM", "value": "26.4 ± 10.8", "unit": "% ID/g"}]}
